Molecular target: soluble HLA-A*02:01 molecules (Homo sapiens, UniProt P04439, D140Y/D185E/D98H/E176V/E277Q/G131W/G231S/I119V/I121R/I166T/I218V/L300P/L318F/N151K/N90K/P208A/P217A/Q86G/Q94H/R138H/R169H/T345S)
Assay: Binding with soluble HLA-A*02:01 molecules

`CSCC[C@H](NC(=O)[C@@H](N)[C@@H](C)O)C(=O)N[C@@H](CC(C)C)C(=O)N[C@@H](CCC(=O)O)C(=O)N[C@@H](CC(=O)O)C(=O)N[C@@H](Cc1c[nH]cn1)C(=O)N[C@@H](CCC(=O)O)C(=O)N[C@@H](Cc1ccccc1)C(=O)N[C@H](C(=O)O)C(C)C` [gB675–683] gave a Kd of roughly 95 nM.

Source: publication PMC4057607 (Journal of immunology (Baltimore, Md. : 1950), 2013)
